Key:
[1] = tested on: JJN3R multiple myeloma cell line; assay: Human tumor xenograft model in mice, JJN3R; type: in vivo; conditions: 1 mg/kg, QD × 7
Excerpt: All rodents were obtained from Jackson Laboratory. (Bar Harbor, Me.), and maintained in an ammonia-free environment in a defined and pathogen-free colony. All mice were quarantined approximately 1 week prior to their use for tumor propagation and drug efficacy testing. Mice were fed food and water ad libitum. The animal care program of Bristol-Myers Squibb Pharmaceutical Research Institute is fully accredited by the American Association for Accreditation of Laboratory Animal Care (AAALAC). All experiments were performed in accordance with Bristol-Myers Squibb (BMS) animal test methods and guidelines.
Tumor xenografts were grown and maintained subcutaneously (SC) in NSG (NOD scid IL2 receptor gamma chain knockout) mice (Jackson Lab). Tumors were propagated as subcutaneous transplants using tumor fragments obtained from donor mice.
The required numbers of animals needed to detect a meaningful response were pooled at the start of the experiment and each was given bilateral subcutaneous implants of two tumor fragments (˜20 mg) with a 13-gauge trocar. Tumors were allowed to grow to the pre-determined size window (tumors outside the range were excluded) and animals were evenly distributed to various treatment and control groups. There were typically 6-8 mice per treatment and control groups, consisting of 10-12 tumors. Treatment of each animal was based on individual body weight. Treated animals were checked daily for treatment related toxicity/mortality. Each group of animals was weighed before the initiation of treatment (Wt1) and then again following the last treatment dose (Wt2). The difference in body weight (Wt2−Wt1) provides a measure of treatment-related toxicity.
Tumor response was determined by measurement of tumors with a caliper twice a week, until the tumors reached a predetermined “target” size of 0.5 gm or 1 gm depending on the tumor type. Tumor weights (mg) were estimated from the formula: Tumor weight=(length×width^2)÷2
Tumor response criteria are expressed in terms of tumor growth inhibition (% TGI). Tumor growth delay is defined as the difference in time (days) required for the treated tumors (T) to reach a predetermined target size compared to those of the control group (C). For this purpose, the tumor weight of a group is expressed as medium tumor weight (MTW).
[formula] where, • Ct=Median control tumor size at end of treatment • C0=Median control tumor size at treatment initiation • Tt=Median tumor size of treated group at end of treatment • T0=Median tumor size of treated group at treatment initiation
Tumor response was also expressed in terms of tumor growth delay and expressed as log cell kill (LCK value), defined as the difference in time (days) required for the treated tumors (T) to reach a predetermined target size compared to those of the control group (C).
Whenever possible, antitumor activity was determined at a range of dose levels up to the maximum tolerated dose (MTD) which is defined as the dose level immediately […] which excessive toxicity (i.e. more than one death) occurred. When death occurred, the day of death was recorded. Treated mice dying prior to having their tumors reach target size were considered to have died from drug toxicity. No control mice died bearing tumors less than target size. Treatment groups with more than one death caused by drug toxicity were considered to have had excessively toxic treatments and their data were not included in the evaluation of a compound's antitumor efficacy.
For administration of BET inhibitors to rodents, compounds were dissolved in […]/10% TPGS/10% Ethanol. BET inhibitors were typically administered orally on a schedule of QD×7 or QD×10 (5 day-on-2 day-off), although other schedules had also been evaluated and shown to be efficacious

BRD4 = BRD4 (Homo sapiens, UniProt O60885); assay: Time Resolved Fluorescence Resonance Energy Transfer (TR-FRET) binding assay, BRD4; conditions: one of the FRET assays described; read-out: FRET BRD4 IC50

| Compound | % TGI [1] [%] | LCK [1] | IC50 (BRD4) [nM] |
| --- | --- | --- | --- |
| [2H]C([2H])([2H])c1nnn(C)c1-c1cnc2c3ccc([C@](C)(O)C4CC4)c(F)c3n([C@H](c3ccccc3)C3CCOCC3)c2c1 [Example 434, (1R)-1-cyclopropyl-1-{6-fluoro-3-[4-(^2H3)methyl-1-methyl-1H-1,2,3-triazol-5-yl]-5-[(S)-oxan-4-yl(phenyl)methyl]-5H-pyrido[3,2-b]indol-7-yl}ethan-1-ol] | 82 | 0.5 |  |
| [2H]C([2H])([2H])c1nnn(C)c1-c1cnc2c3ccc([C@@](C)(O)C4CC4)c(F)c3n([C@H](c3ccccc3)C3CCOCC3)c2c1 [Example 433, (1S)-1-cyclopropyl-1-{6-fluoro-3-[4-(^2H3)methyl-1-methyl-1H-1,2,3-triazol-5-yl]-5-[(S)-oxan-4-yl(phenyl)methyl]-5H-pyrido[3,2-b]indol-7-yl}ethan-1-ol] | 54 | 0.5 |  |
| Cc1nnn(C)c1-c1cnc2c3ccc(C(C)(C)N)c(F)c3n([C@H](c3ccccc3)C3CCOCC3)c2c1 [Example 461, 2-[3-(Dimethyl-1H-1,2,3-triazol-5-yl)-6-fluoro-5-[(S)-oxan-4-yl(phenyl)methyl]-5H-pyrido[3,2-b]indol-7-yl]propan-2-amine] |  |  | < 5 |
| COc1ccc(S(C)(=O)=O)c2c1c1ncc(-c3c(C)nnn3C)cc1n2[C@H](c1ccccc1)C1CCOCC1 [Example 182, 5-{6-Methanesulfonyl-9-methoxy-5-[(S)-oxan-4-yl(phenyl)methyl]-5H-pyrido[3,2-b]indol-3-yl}-1,4-dimethyl-1H-1,2,3-triazole] |  |  | < 5 |
| Cc1noc(C)c1-c1cnc2c3ccc(C(C)(C)O)cc3n([C@H](c3ccccn3)C3CCOCC3)c2c1 [Example 21] |  |  | < 5 |
| Cc1noc(C)c1-c1cnc2c3ccc(C(C)(C)O)cc3n([C@@H](c3ccc(F)cc3)C3CCC3)c2c1 [Example 16] |  |  | < 25 |
| Cc1nnn(C)c1-c1cnc2c3ccc(C(C)(C)O)cc3n(C(c3cc(F)ccc3F)C3CCOCC3)c2c1 (single isomer, unassigned) [Example 131, 2-{5-[(2,5-Difluorophenyl)(oxan-4-yl)methyl]-3-(dimethyl-1H-1,2,3-triazol-5-yl)-5H-pyrido[3,2-b]indol-7-yl}propan-2-ol] |  |  | < 5 |
| [2H]C([2H])([2H])c1nnn(C)c1-c1cnc2c3c(OC)cc(S(C)(=O)=O)cc3n(C(c3ncccc3F)C3CCOCC3)c2c1 (stereo not shown) [Example 208, 3-Fluoro-2-[{7-methanesulfonyl-9-methoxy-3-[4-(^2H3)methyl-1-methyl-1H-1,2,3-triazol-5-yl]-5H-pyrido[3,2-b]indol-5-yl}(oxan-4-yl)methyl]pyridine] |  |  | < 5 |
| Cc1noc(C)c1-c1cnc2c3ccc(C(C)(C)O)cc3n([C@H](CCC(F)(F)F)c3ccccc3C(F)(F)F)c2c1 [Example 84] |  |  | < 1500 |
| Cc1nnn(C)c1-c1cnc2c3ccc(C(C)(C)O)cc3n(C(c3cc(Cl)ccn3)C3CCOCC3)c2c1 (single isomer, unassigned) [Example 297] |  |  | < 5 |
| [2H]C([2H])([2H])c1nnn(C)c1-c1cnc2c3ccc(C(C)(C)O)c(F)c3n([C@H](c3ccc(F)cc3)C3CCOCC3)c2c1 [Example 271, 2-{6-Fluoro-5-[(S)-(4-fluorophenyl)(oxan-4-yl)methyl]-3-[4-(^2H3)methyl-1-methyl-1H-1,2,3-triazol-5-yl]-5H-pyrido[3,2-b]indol-7-yl}propan-2-ol] |  |  | < 5 |
| Cc1cc(C(C2CCOCC2)n2c3cc(C(C)(C)O)ccc3c3ncc(-c4c(C)noc4C)cc32)no1 (single isomer, unassigned) [Example 306] |  |  | < 5 |
| [2H]C([2H])([2H])c1nnn(C)c1-c1cnc2c3c(F)ccc(S(C)(=O)=O)c3n([C@H](c3ccccc3)C3CCOCC3)c2c1 [Example 221, 5-{9-Fluoro-6-methanesulfonyl-5-[(S)-oxan-4-yl(phenyl)methyl]-5H-pyrido[3,2-b]indol-3-yl}-4-(^2H3)methyl-1-methyl-1H-1,2,3-triazole] |  |  | < 5 |
| [2H]C([2H])([2H])c1nnn(C)c1-c1cnc2c3cc(F)c(C(C)(C)O)cc3n(C(c3cc(OC)ccn3)C3CCOCC3)c2c1 (single isomer, unassigned) [Example 326] |  |  | < 25 |
| [2H]C([2H])([2H])c1nnn(C)c1-c1cnc2c3ccc(C(C)(C)O)c(F)c3n(C(c3cc(C)on3)C3CCOCC3)c2c1 (single isomer, unassigned) [Example 314] |  |  | < 5 |
| Cc1noc(C)c1-c1cnc2c3ccc(C(C)(C)O)cc3n(C(c3cccc(F)c3F)C3CCOCC3)c2c1 (single isomer, unassigned) [Example 146, 2-{5-[(2,3-Difluorophenyl)(oxan-4-yl)methyl]-3-(dimethyl-1,2-oxazol-4-yl)-5H-pyrido[3,2-b]indol-7-yl}propan-2-ol] |  |  | < 5 |
| Cc1noc(C)c1-c1cnc2c3ccc(C(C)(C)O)cc3n(C(c3ccccc3)C3CCOCC3)c2c1 (single isomer, unassigned) [Example 1, 2-[3-(Dimethyl-1,2-oxazol-4-yl)-5-[oxan-4-yl(phenyl)methyl]-5H-pyrido[3,2-b]indol-7-yl]propan-2-ol] |  |  | < 5 |
| [2H]C([2H])([2H])c1nnn(C)c1-c1cnc2c3c(OC)cc(C(C)(C)O)cc3n(C(c3ccncc3F)C3CCOCC3)c2c1 (stereo not shown) [Example 347, 2-{5-[(3-Fluoropyridin-4-yl)(oxan-4-yl)methyl]-9-methoxy-3-[4-(^2H3)methyl-1-methyl-1H-1,2,3-triazol-5-yl]-5H-pyrido[3,2-b]indol-7-yl}propan-2-ol] |  |  | < 5 |
| Cc1ccc([C@H](C2CCOCC2)n2c3cc(CS(C)(=O)=O)ccc3c3ncc(-c4c(C)nnn4C)cc32)nc1 [Example 338] |  |  | < 5 |
| [2H]C([2H])([2H])c1nnn(C)c1-c1cnc2c3c(S(C)(=O)=O)cc(F)c(F)c3n([C@H](c3ccccc3)C3CCOCC3)c2c1 [Example 161, 5-{6,7-Difluoro-9-methanesulfonyl-5-[(S)-oxan-4-yl(phenyl)methyl]-5H-pyrido[3,2-b]indol-3-yl}-4-(^2H3)methyl-1-methyl-1H-1,2,3-triazole] |  |  | < 5 |
| Cc1nnn(C)c1-c1cnc2c3ccc(C(C)(C)F)cc3n([C@H](c3ccccc3)C3CCOCC3)c2c1 [Example 351, 5-[7-(2-Fluoropropan-2-yl)-5-[(S)-oxan-4-yl(phenyl)methyl]-5H-pyrido[3,2-b]indol-3-yl]-1,4-dimethyl-1H-1,2,3-triazole] |  |  | < 5 |
| [2H]C([2H])([2H])c1nnn(C)c1-c1cnc2c3c(NS(=O)(=O)C4CC4)ccc(S(C)(=O)=O)c3n([C@H](c3ccccc3)C3CCOCC3)c2c1 [Example 222, N-{6-Methanesulfonyl-3-[4-(^2H3)methyl-1-methyl-1H-1,2,3-triazol-5-yl]-5-[(S)-oxan-4-yl(phenyl)methyl]-5H-pyrido[3,2-b]indol-9-yl}cyclopropanesulfonamide] |  |  | < 5 |
| Cc1nnn(C)c1-c1cnc2c3ccc(C(C)(C)N)cc3n(C(c3ccccc3)C3CCOCC3)c2c1 (single isomer, unassigned) [Example 165, 2-[3-(Dimethyl-1H-1,2,3-triazol-5-yl)-5-[oxan-4-yl(phenyl)methyl]-5H-pyrido[3,2-b]indol-7-yl]propan-2-amine] |  |  | < 5 |
| Cc1noc(C)c1-c1cnc2c3ccc(C(O)CC#N)cc3n([C@H](c3ccccc3)C3CCOCC3)c2c1 (single isomer, unassigned) [Example 373] |  |  | < 5 |
| [2H]C([2H])([2H])c1nnn(C)c1-c1cnc2c3ccc(C(C)(C)O)cc3n(C(c3ccc(F)cc3F)C3CCOCC3)c2c1 (stereo not shown) [Example 280, 2-{5-[(2,4-Difluorophenyl)(oxan-4-yl)methyl]-3-[4-(^2H3)methyl-1-methyl-1H-1,2,3-triazol-5-yl]-5H-pyrido[3,2-b]indol-7-yl}propan-2-ol] |  |  | < 5 |
| Cc1noc(C)c1-c1cnc2c3ccc(C(C)(C)O)cc3n(C(c3c(F)cc(F)cc3F)C3CCOCC3)c2c1 (single isomer, unassigned) [Example 128, 2-[3-(Dimethyl-1,2-oxazol-4-yl)-5-[oxan-4-yl(2,4,6-trifluorophenyl)methyl]-5H-pyrido[3,2-b]indol-7-yl]propan-2-ol] |  |  | < 25 |
